Results: patent US7803821B2, “Fungicide N-cycloalkyl-carboxamide, thiocarboxamide and N-substituted-carboximidamide derivatives” (Bayer Cropscience SA, priority 2006, dated 2010)

Test: log P by HPLC on reversed-phase column (C18), EEC Directive 79/831 Annex V.A8
Assay type: physicochemical
Conditions: C18, 40° C., 0.1% aqueous formic acid and acetonitrile, gradient 10% to 90% acetonitrile
Experimental: Temperature: 40° C.; Mobile phases: 0.1% aqueous formic acid and acetonitrile; linear gradient from 10% acetonitrile to 90% acetonitrile.

logP	Compound
1.05	COc1ccnc(CN(C(=O)c2cn(C)nc2C(F)F)C2CC2)c1OC [Example 114]
0.56	COc1ccnc(CN(C(=O)c2cn(C)nc2OC)C2CC2)c1OC [Example 115]
